Experimental findings from patent US5160727A, “Tumor cell sensitization method using quinazolinedione derivatives” (priority 1990, dated 1992) are described below.

One assay deals with P388S cells. Description: 72-hour growth inhibition of drug-sensitive P388S cells by anticancer drug alone or with modifier (Table I). Format: cell-based, murine. The conditions noted are these: modifier with adriamycin. How it is done: In performing the studies P388 that were sensitive to adriamycin (P388S) and P388 cells that were resistant to adriamycin (P388/ADR) were exposed to various concentrations of anticancer drug either alone or together with 5 μg/mL of modifier or sensitizer for 72 hours.
The P388 murine leukemia cells used in obtaining the data set forth in Table I and Table II were obtained from Southern Research Institute (Birmingham, Ala.) and were cultured from ascites fluids of tumor-bearing DMA/2 mice and maintained in Fischer's medium supplemented with 10% horse serum, 10 μM 2-mercaptoethanol, and gentamycin (50 μg/mL). Cells were counted with a Model ZF Coulter Counter (Coulter Electronics, Inc., Hialeah, Fla.). Viability was determined by trypan blue exclusion. The general methodology is described by W. D. Klohs, et al, Cancer Research 46, 4352-4356 (September 1986) and W. D. Klohs, et al, J. Nat'l. Cancer Inst. 75, 353-359 (1985).

A further assay concerns P388R cells. Briefly: Potentiation of adriamycin activity and cell growth in P388 resistant cells (Table II). Format: cell-based, murine. The conditions noted are these: for activity at 5 µM / activity at 10 µM: Mus musculus; for Degree of ADR Potentiation in P388R: footnote a (drawing 3). As to the method:
The P388 murine leukemia cells used in obtaining the data set forth in Table I and Table II were obtained from Southern Research Institute (Birmingham, Ala.) and were cultured from ascites fluids of tumor-bearing DMA/2 mice and maintained in Fischer's medium supplemented with 10% horse serum, 10 μM 2-mercaptoethanol, and gentamycin (50 μg/mL). Cells were counted with a Model ZF Coulter Counter (Coulter Electronics, Inc., Hialeah, Fla.). Viability was determined by trypan blue exclusion. […] Cancer Inst.

[1] abbreviates: P388, test compound at 5 μM, read-out: % of Control Cell Growth.
[2] abbreviates: P388, test compound at 10 μM, read-out: % of Control Cell Growth.
The mark [3] stands for this setting: test compound at 5 μM with adriamycin.
Setting [4] is: test compound at 10 μM with adriamycin.
Setting [5] is: P388, read-out: % of Control Cell Growth.

Where a name gives a salt, the structure may show the parent alone. Read-outs that look alike come from different tables or passages of the source.

cyclosporin A: in the assay with P388S cells, the “effect on adriamycin activity in drug-sensitive parent P388S cells” value is reported as “little effect”.

For `CCCSc1ccccc1N1CCN(CCCCn2c(=O)c3cccc(OC)c3n(C)c2=O)CC1.Cl` [Example 18, 8-methoxy-1-methyl-3-[4-[4-[2-(propylthio)phenyl]-1-piperazinyl]butyl]-2,4-(1H,3H)quinazolinedione monohydrochloride], the activity at 5 µM in the assay on P388R cells (setting [1]) was determined as 100%. In addition, the activity at 10 µM with P388R cells (setting [2]) amounted to 87%. In addition, the figures for the “Degree of ADR Potentiation in P388R” value with P388R cells (setting [3]) and in the assay with P388R cells (setting [4]) were 21.1 and 24.6, respectively.

As for `CSc1ccccc1N1CCN(CCCCn2c(=O)[nH]c3ccccc3c2=O)CC1` [Example 7, 3-[4-[4-[2-methylthio)phenyl]-1-piperazinyl]butyl]-2,4(1H,3H)quinazolinedione monohydrochloride], the activity at 5 µM in the assay on P388R cells (setting [1]) worked out at 95%. The activity at 10 µM in the assay on P388R cells (setting [2]) came to 72%. Further, the “Degree of ADR Potentiation in P388R” value in the assay on P388R cells (setting [3]) is given as 25.2; with P388R cells (setting [4]), 48.4.

Turning to `CCCSc1ccccc1N1CCN(CCCCn2c(=O)[nH]c3ccc(Cl)cc3c2=O)CC1.Cl` [Example 3, 6-chloro-3-[4-[4-[2-(propylthio)phenyl]-1-piperazinyl]butyl]-2,4-(1H,3H)quinazolinedione monohydrochloride], the activity at 5 µM in the assay with P388R cells (setting [1]) turned out to be 100%. Besides, in the assay on P388R cells (setting [2]), the activity at 10 µM amounted to 88%. Further, the “Degree of ADR Potentiation in P388R” value in the assay with P388R cells (setting [3]) turned out to be 19.6; with P388R cells (setting [4]), 44.7.

With `CCCSc1ccccc1N1CCN(CCCCCn2c(=O)[nH]c3cc(OC)c(OC)cc3c2=O)CC1` [Example 14, 6,7-dimethoxy-3-[5-[4-[2-(propylthio)phenyl]-1-piperazinyl]pentyl]-2,4(1H,3H)-quinazolinedione], the activity at 5 µM with P388R cells (setting [1]) is 53%. The activity at 10 µM with P388R cells (setting [2]) came out at 1.2%. The “Degree of ADR Potentiation in P388R” value in the assay with P388R cells (setting [3]) came to 65.0.

Take `CCCSc1ccccc1N1CCN(CCCCCn2c(=O)[nH]c3ccccc3c2=O)CC1` [Example 19, 3-[5-[4-[2-(propylthio)phenyl]-1-piperazinyl]pentyl]-2,4-(1H,3H)-quinazolinedione]: in the assay with P388R cells (setting [1]), the activity at 5 µM is 100%. For the same compound, in the assay with P388R cells (setting [2]), the activity at 10 µM was 68%. The entries for the “Degree of ADR Potentiation in P388R” value in the assay on P388R cells (setting [3]) and in the assay with P388R cells (setting [4]) were 36.7 and 66.9, respectively.

On to `CCCSc1ccccc1N1CCN(CCCCCn2c(=O)c3cc(OC)c(OC)cc3n(C)c2=O)CC1` [Example 16, 6,7-dimethoxy-1-methyl-3-[5-[4-[2-(propylthio)phenyl]-1-piperazinyl]pentyl]-2,4(1H,3H)-quinazolinedione], for which, in the assay on P388R cells (setting [1]), the activity at 5 µM turned out to be 33%. In addition, the activity at 10 µM in the assay with P388R cells (setting [2]) turned out to be 4.2%. For the same compound, the “Degree of ADR Potentiation in P388R” value in the assay on P388R cells (setting [3]) turned out to be 44.5.

With `CCCSc1ccccc1N1CCN(CCCCn2c(=O)c3cc(OC)c(OC)cc3n(C)c2=O)CC1` [Example 15, 6,7-dimethoxy-1-methyl-3-[4-[4-[2-(propylthio)phenyl]-1-piperazinyl]butyl]-2,4(1H,3H)-quinazolinedione], the activity at 5 µM in the assay on P388R cells (setting [1]) worked out at 46%. Moreover, the activity at 10 µM with P388R cells (setting [2]) came to 2.6%. Moreover, the “Degree of ADR Potentiation in P388R” value in the assay with P388R cells (setting [3]) is reported as 21.2.

For `CCCSc1ccccc1N1CCN(CCCCn2c(=O)[nH]c3c(OC)cccc3c2=O)CC1` [Example 17, 8-methoxy-3-[4-[4-[2-(propylthio)phenyl]-1-piperazinyl]butyl]-2,4-(1H,3H)quinazolinedione], the activity at 5 µM with P388R cells (setting [1]) stood at 83%. Moreover, the activity at 10 µM in the assay on P388R cells (setting [2]) was determined as 39%. The “Degree of ADR Potentiation in P388R” value is recorded as 3.4 with P388R cells (setting [3]) and 67.2 with P388R cells (setting [4]).

In the case of `CCCCSc1ccccc1N1CCN(CCCCn2c(=O)[nH]c3ccccc3c2=O)CC1.Cl` [Example 8, 3-[4-[4-[2-(butylthio)phenyl]-1-piperazinyl]butyl]-2,4-(1H,3H)-quinazolinedione monohydrochloride], the activity at 5 µM in the assay on P388R cells (setting [1]) stood at 88%. Besides, the activity at 10 µM in the assay on P388R cells (setting [2]) was determined as 86%. Further, the “Degree of ADR Potentiation in P388R” value in the assay with P388R cells (setting [3]) was 25.0; in the assay with P388R cells (setting [4]), 48.4.

With `CCCSc1ccccc1N1CCN(CCCCn2c(=O)[nH]c3ccc(C)cc3c2=O)CC1.Cl` [Example 10, 6-methyl-3-[4-[4[2(propylthio)phenyl]-1-piperazinyl]butyl]-2,4(1H,3H)-quinazolinedione monohydrochloride], the activity at 5 µM in the assay on P388R cells (setting [1]) turned out to be 92%. Moreover, in the assay on P388R cells (setting [2]), the activity at 10 µM came to 85%. The “Degree of ADR Potentiation in P388R” value in the assay on P388R cells (setting [3]) came out at 21.0; in the assay with P388R cells (setting [4]), 48.4.

With `Cl.O=c1[nH]c2ccccc2c(=O)n1CCCCN1CCN(c2cccc(Cl)c2Cl)CC1` [Example 4, 3-[4-[4-(2,3-dichlorophenyl)-1-piperazinyl]butyl]-2,4-(1H,3H)-quinazolinedione monohydrochloride], the activity at 5 µM in the assay with P388R cells (setting [5]) is 76%. The activity at 10 µM in the assay with P388R cells (setting [5]) was 76%. The “Degree of ADR Potentiation in P388R” value with P388R cells (setting [3]) worked out at 21.8; in the assay with P388R cells (setting [4]), 31.7.

Regarding `CCSc1ccccc1N1CCN(CCCCn2c(=O)[nH]c3ccccc3c2=O)CC1.Cl` [Example 5, 3-[4-[4-[2-(ethylthio)phenyl)-1-piperazinyl]butyl]-2,4-(1H,3H)-quinazolinedione monohydrochloride], the activity at 5 µM with P388R cells (setting [1]) was found to be 79%. Besides, the activity at 10 µM in the assay with P388R cells (setting [2]) was determined as 78%. The “Degree of ADR Potentiation in P388R” value was 19.6 in the assay with P388R cells (setting [3]) and 46.6 in the assay on P388R cells (setting [4]).

As for `CCCSc1ccccc1N1CCN(CCCCn2c(=O)c3ccccc3n(C)c2=O)CC1` [Example 12, 1-methyl-3-[4-[4-[2-(propylthio)phenyl]-1-piperazinyl]butyl] -2,4-(1H,3H)quinazolinedione], in the assay on P388R cells (setting [1]), the activity at 5 µM is 100%. The activity at 10 µM in the assay on P388R cells (setting [2]) amounted to 87%. Besides, the “Degree of ADR Potentiation in P388R” value stood at 17.9 in the assay on P388R cells (setting [3]) and 39.1 in the assay with P388R cells (setting [4]).

`CC(C)Sc1ccccc1N1CCN(CCCCn2c(=O)[nH]c3ccccc3c2=O)CC1.Cl` [Example 6, 3-[4-[4-[2-[(1-methylethyl)thio]phenyl]-1-piperazinyl]butyl]-2,4-(1H,3H)-quinazolinedione monohydrochloride]: the activity at 5 µM with P388R cells (setting [1]) was determined as 91%. Besides, in the assay on P388R cells (setting [2]), the activity at 10 µM is 59%. The “Degree of ADR Potentiation in P388R” value in the assay on P388R cells (setting [3]) turned out to be 24.2; in the assay on P388R cells (setting [4]) it was 52.2.

With `CCCSc1ccccc1N1CCN(CCCn2c(=O)[nH]c3ccccc3c2=O)CC1.Cl` [Example 2, 3-[3-[4-[2-(propylthio)phenyl]-1-piperazinyl]propyl]-2,4-(1H,3H)-quinazolinedione monohydrochloride], the activity at 5 µM in the assay on P388R cells (setting [1]) was 89%. Besides, the activity at 10 µM with P388R cells (setting [2]) was 87%. Further, the “Degree of ADR Potentiation in P388R” value came to 13.1 with P388R cells (setting [3]) and 22.0 with P388R cells (setting [4]).

For the compound `CCCSc1ccccc1N1CCN(CCCCn2c(=O)[nH]c3cc(OC)c(OC)cc3c2=O)CC1` [Example 13, 6,7-dimethoxy-3-[4-[4-[2-(propylthio)phenyl]-1-piperazinyl]butyl]-2,4-(1H,3H)-quinazolinedione], in the assay with P388R cells (setting [1]), the activity at 5 µM was 100%. In addition, in the assay on P388R cells (setting [2]), the activity at 10 µM came out at 10.4%. Further, the “Degree of ADR Potentiation in P388R” value with P388R cells (setting [3]) is 93.0; with P388R cells (setting [4]), 52.2.

As to `CCCSc1ccccc1N1CCN(CCCCCCn2c(=O)[nH]c3ccccc3c2=O)CC1` [Example 11, 3-[6-[4-[2-(propylthio)phenyl]-1-piperazinyl]hexyl]-2,4-(1H,3H)quinazolinedione monohydrochloride, 1/3 hydrate], the activity at 5 µM in the assay on P388R cells (setting [1]) was 99%. For the same compound, the activity at 10 µM in the assay with P388R cells (setting [2]) was determined as 66%. Besides, the “Degree of ADR Potentiation in P388R” value in the assay with P388R cells (setting [3]) is 73.8; in the assay on P388R cells (setting [4]), 52.2.

Consider `CCCSc1ccccc1N1CCN(CCCCn2c(=O)[nH]c3cc(Cl)ccc3c2=O)CC1.Cl` [Example 9, 7-chloro-3-[4-[4-[2-(propylthio)phenyl]-1-piperazinyl]butyl]2,4(1H,3H)-quinazolinedione monohydrochloride], for which the activity at 5 µM in the assay with P388R cells (setting [1]) was found to be 100%. Moreover, in the assay with P388R cells (setting [2]), the activity at 10 µM is 85%. Moreover, the figures for the “Degree of ADR Potentiation in P388R” value with P388R cells (setting [3]) and with P388R cells (setting [4]) were 22.2 and 35.4, respectively.
